Measured values from publication PMC7582876, “Antiproliferative Properties of a Few Auranofin-Related Gold(I) and Silver(I) Complexes in Leukemia Cells and their Interferences with the Ubiquitin Proteasome System” (Molecules, 2020).

Assays:
[1] = target: T1, trypsin-like (T-L) activity of human 20S proteasome (Homo sapiens, UniProt Q99436); test: Inhibition of trypsin-like activity of 20S proteasome (Boc-Leu-Arg-Arg-AMC); type: biochemical; conditions: for IC50: 10 min, no pre-incubation, 30 °C; for T-L inhibition at 10 µM: over 10 min
T1 construct: 20S proteasome, isolated and purified from human erythrocytes; purchased Biomol GmbH, Hamburg, Germany; host or cells: human erythrocytes (native complex)
Procedure: (§1) 20S proteasome, isolated and purified from human erythrocytes, was obtained from a commercial source (Biomol GmbH, Hamburg, Germany), as well as the peptidic substrates (Bachem, Bubendorf, Switzerland) Suc-Leu-Leu-Val-Tyr-AMC, Boc-Leu-Arg-Arg-AMC and Cbz-Leu-Leu-Glu-AMC for ChT-L, T-L and PGPH (C-L) activity of the enzyme, respectively. The three distinct proteolytic activities of the 20S proteasome were measured by monitoring the hydrolysis of the substrates and detecting the fluorescence of the common product released, i.e., 7-amino-4-methyl coumarin (7-AMC), by means of an Infinite 200 PRO microplate reader (Tecan, Männedorf, Switzerland) at 30 °C with a 380-nm excitation filter and a 460-nm emission filter. All gold and silver complexes were tested against the three proteolytic activities of the 20S proteasome and against Cat-B, Cat-L and bovine pancreatic α-chymotrypsin at 10 µM concentrations over a period of 10 min using an equivalent amount of DMSO as a negative control. […] The IC50 values were calculated with the program GraFit® using the two-parameter equation. More detailed experimental protocols for the assays against each proteolytic activity of the 20S proteasome, as well as against bovine pancreatic α-chymotrypsin, are already reported elsewhere (see also Supplementary Materials). Cat-B and Cat-L were purchased from Calbiochem, Darmstadt, Germany, and the related assays were performed as previously described. The employed fluorogenic substrate for both cysteine proteases was Cbz-Phe-Arg-AMC (80 µM for Cat-B; 5 µM for Cat-L). […]
Inhibition assay for the Tryptic Activity of the 20S Proteasome
mg∙mL−1 with the test compound present at 10 µM (screening assay) or at variable
concentrations (continuous assay). The reaction buffer consisted of 50 mM Tris buffer pH
substrate hydrolysis ([…]) was monitored continuously over a period of 10 min. […]

CEM/ADR5000 cells = test: Resazurin cytotoxicity assay, multidrug-resistant CEM/ADR5000 leukemia cells; type: cell-based, human; conditions: for IC50: cell growth, resazurin assay, 72 h incubation, IC50 ± SD, n = 3; for Degree of Resistance: ratio of IC50 of CEM/ADR5000 cells divided by IC50 of CCRF-CEM cells
Procedure: Drug-sensitive CCRF-CEM and multidrug-resistant (MDR) P-glycoprotein (P-gp)-over-expressing CEM/ADR5000 leukemic cells were kindly provided by Prof. Axel Sauerbrey (Department of Pediatrics, University of Jena, Germany). Cells were cultured in RPMA1640 medium including 10% fetal bovine serum (FBS) and 1% penicillin (1000 U/mL)/streptomycin (100 µg/mL) (Life Technologies, Darmstadt, Germany). Doxorubicin (5000 ng/mL) was added to maintain overexpression of P-gp (MDR1 and ABCB1) in CEM/ADR5000 cells. Doxorubicin was obtained from the University Pharmacy of the University Medical Center Mainz. CEM/ADR5000 cells display a more than 1000-fold resistance to doxorubicin [27] and are therefore a suitable model to identify novel drugs without or very low cross-resistance.
The cytotoxic effects of the compounds solved in DMSO (Sigma-Aldrich, Taufkirchen, Germany) were tested by the resazurin assay. This assay is based on reduction of the indicator dye, resazurin, to the highly fluorescent resorufin by viable cells. Cells lethally damaged by cytotoxic compounds rapidly lose the enzymatic capability to reduce non-fluorescent resazurin to the highly fluorescent resorufin. As the reductive potential happens in a dose-dependent manner, this chemical reaction can be exploited to quantitatively determine the cytotoxic potential of investigational compounds and to measure dose-response relationships. With increasing concentrations of a cytotoxic drug, the fluorescence signal fades out. Aliquots of 10,000 cells/100 µL cells were seeded into 96-well plates (Thermo-Scientific, Dreieich, Germany) and immediately treated with various concentrations of each compound. After 72 h incubation at 37 °C, 20 µL resazurin 0.01% w/v solution (Invitrogen, Dreieich, Germany) were added to each well, and the plates were maintained at 37 °C for 4 h. Fluorescence was measuring by an Infinite M2000 Proplate reader (Tecan, Crailsheim, Germany) with an excitation wavelength of 544 nm and an emission wavelength of 590 nm. Each experiment was done at least three times with six replicates each. The viability was analyzed in comparison with untreated cells. […] It is a well-established measure to determine the cytotoxic potential of anticancer drugs. The IC50 values were calculated from a calibration curve by linear regression using Microsoft Excel.

[2] = target: T2, peptidyl-glutamyl peptide-hydrolyzing (PGPH or caspase-like C-L) activity of human 20S proteasome (Homo sapiens, UniProt P28072); test: Inhibition of peptidyl-glutamyl peptide-hydrolyzing activity of 20S proteasome (Cbz-Leu-Leu-Glu-AMC); type: biochemical; conditions: for IC50: 10 min, no pre-incubation, 30 °C; for PGPH (C-L) inhibition at 10 µM: over 10 min
T2 construct: 20S proteasome, isolated and purified from human erythrocytes; purchased Biomol GmbH, Hamburg, Germany; host or cells: human erythrocytes (native complex)
Procedure: as §1
Inhibition assay for the Post-Glutamyl Peptide Hydrolyzing Activity of the 20S
with the test compound present at 10 µM (screening assay) or variable concentrations. The
reaction buffer consisted of 50 mM Tris buffer pH 7.5 containing 25 mM KCl, 10 mM NaCl,
1 mM MgCl2, 0.03% SDS, 5% DMSO. Product release from substrate hydrolysis ([…])
was monitored continuously over a period of 10 min.

[3] = target: T3, chymotrypsin-like (ChT-L) activity of human 20S proteasome (Homo sapiens, UniProt P28074); test: Inhibition of chymotrypsin-like activity of 20S proteasome (Suc-Leu-Leu-Val-Tyr-AMC); type: biochemical; conditions: for IC50: 10 min, no pre-incubation, 30 °C; for ChT-L inhibition at 10 µM: over 10 min
T3 construct: 20S proteasome, isolated and purified from human erythrocytes; purchased Biomol GmbH, Hamburg, Germany; host or cells: human erythrocytes (native complex)
Procedure: as §1
Inhibition assay for the Chymotryptic Activity of the 20S Proteasome
Human 20S proteasome was incubated at 30 °C at a final concentration of 0.004 mg∙mL−1
with test compound present at 10 µM (screening assay) or at variable concentrations
(continuous assay). The reaction buffer consisted of 50 mM Tris pH 7.5, 10 mM NaCl, 25
mM KCl, 1 mM MgCl2, 0.03% SDS and 5% DMSO. Product release from substrate
hydrolysis ([…]) was monitored continuously over a period of 10 min. […]

Structure (SMILES) | IC50 [1] [nM] | IC50 (CEM/ADR5000 cells) [nM] | Degree of Resistance (CEM/ADR5000 cells) | IC50 [2] [nM] | IC50 [3] [nM] | PGPH (C-L) inhibition at 10 µM [2] | ChT-L inhibition at 10 µM [3] | T-L inhibition at 10 µM [1]
CCP(CC)CC.[Br][Au] [Au(PEt3)Br] | 1260 ± 120 | 270 ± 50 | 0.96 | > 10000 | 1400 ± 800 | – | – | –
CC[P](CC)(CC)[Au][I] [Au(PEt3)I] | 5800 ± 300 | 280 ± 80 | 0.87 | > 10000 | 6100 ± 400 | – | – | –
CC[PH](CC)(CC)[Ag][Cl] [Ag(PEt3)Cl] | 2200 ± 1300 | 2640 ± 480 | 1.94 | – | – | n.i. | 28 ± 0.5% | –
CC[PH](CC)(CC)[Ag][Br] [Ag(PEt3)Br] | 2650 ± 150 | 3890 ± 700 | 2.59 | – | – | n.i. | 22 ± 0.4% | –
CCP(CC)CC.CCP(CC)CC.O=[N+]([O-])[O-].[Ag+] [[Ag(PEt3)2]NO3] | – | – | 3.05 | – | – | n.i. | 38 ± 5.0% | n.i.
CCP(CC)CC.[Au+].[Cl-] [Au(PEt3)Cl] | 1250 ± 50 | 260 ± 40 | 0.74 | > 10000 | 2600 ± 300 | – | – | –
CC(=O)OC[C@H]1O[C@@H]([S-])[C@H](OC(C)=O)[C@@H](OC(C)=O)[C@@H]1OC(C)=O.CCP(CC)CC.[Au+] [auranofin, Auranofin] | – | 280 ± 60 | 1.27 | – | – | n.i. | n.i. ^a | n.i.
CC[PH](CC)(CC)[Ag][I] [Ag(PEt3)I] | 2270 ± 780 | 1460 ± 150 | 1.14 | – | – | n.i. | 25 ± 0.2% | –
